Where a SMILES comes first, the peptide text is derived from it. The star is where a group is joined. αGalNAc = CC(=O)N[C@@H]1[C@@H](O)[C@@H](O)[C@@H](CO)O[C@@H]1*
What was measured:
GalNAc-T2 [1] = target: T1, GalNAc-T2 (Homo sapiens, UniProt Q10471); assay: Time-lapse AFM of single GalNAc-T2 molecules with ligands; details: GalNAc-T2 2.0 nM on mica, PBS pH 7.4, 20 °C
T1 construct: made in house
Experimental: AFM measurements were performed using a MultiMode 8 AFM system (Bruker). […] Additional details are in Supplementary Methods. […]
simulations were performed with the acceptor amino acid – UDPGalNAc distance and the RMSD of the Cα peptide carbon atoms as collective variables.
The values of the height and width of the Gaussian-like biasing potential were selected as 1.0 kcal·mol -1 and 0.25 Å, respectively. A temperature window of ΔT = 25000 K for the well-tempered algorithm was used together with a deposition time of 1 ps. The simulation was continued until the system completely explored the free energy landscape several times which, in terms of the simulation time, corresponds to approximately 100 ns for each metadynamics run.
Atomic Force Microscopy Imaging
In Tapping Mode image operation the cantilever driven by a piezoelectric actuator vibrates near its resonance frequency. Upon approaching the sample, the tip briefly touches the surface at the bottom of each swing, resulting in a decrease in oscillation amplitude. […]
AFM scanning requires the sample be immobilized on a nanoflat surface not to be swept away. […] The concentration of the protein incubated on the mica sheets was suitable to get isolated features that could be analyzed individually. […]
GalNAc-T2 presents a net positive charge at the working pH conditions due to its theoretical isoelectric point of 8.3. The immobilization of enzymes on mica was previously evaluated observing clearly they preserve the enzymatic activity5.
To determine how the ligands affect the conformational dynamics of GalNAc-T2, the enzyme was also incubated with ligands for 10 min under mild stirring at room temperature. […] AFM images were further analyzed by using the WSxM software6. […] At least 10 images of 10 different areas of 500 nm2 were analyzed for every sample and environment. Furthermore, each feature or associate was analyzed in detail with the zoom function of the WSxM program, performed without losing image information and or the discarding of artifacts. […]

GalNAc-T2 [2] = target: T1, GalNAc-T2; details: cited from earlier work
From the text: Among other conclusions it was reported that the glycosylation ...

GalNAc-T2 [3] = target: T1, GalNAc-T2; assay: X-ray crystal structures of GalNAc-T2 complexes; assay type: binding; for Rg of crystal complex: values in Å
Experimental: In all cases, crystals were grown by hanging drop vapour diffusion at 18 °C. […] The protein solution consisting of 3.5 mg ml^−1 of GalNAcT-2, 5 mM UDP, 5 mM MnCl2 and 6 mM MUC5AC-13 in the same buffer described above was mixed with the precipitant solution containing 1.6 M ammonium sulfate, 100 mM sodium chloride and 100 mM HEPES (pH 7). The crystals were cryoprotected in saturated lithium sulfate and frozen in a nitrogen gas stream cooled to 100 K.
All data were processed and scaled using the XDS package[34] and CCP4 software. The crystal structures were solved by molecular replacement with Phaser[35] and using the PDB entry 4D0T as the template. Initial phases were further improved by cycles of manual model building in Coot[36] and refinement with REFMAC5 (ref. [37]). The AUs of the tetragonal crystals contain 1 molecule of GalNAc-T2 (Fig. 1). Coordinates and structure factors have been deposited in the Worldwide Protein Data Bank (wwPDB, and see Table 1 for the pdb codes).

T1 sequence (Q10471 75-571 limits assumed): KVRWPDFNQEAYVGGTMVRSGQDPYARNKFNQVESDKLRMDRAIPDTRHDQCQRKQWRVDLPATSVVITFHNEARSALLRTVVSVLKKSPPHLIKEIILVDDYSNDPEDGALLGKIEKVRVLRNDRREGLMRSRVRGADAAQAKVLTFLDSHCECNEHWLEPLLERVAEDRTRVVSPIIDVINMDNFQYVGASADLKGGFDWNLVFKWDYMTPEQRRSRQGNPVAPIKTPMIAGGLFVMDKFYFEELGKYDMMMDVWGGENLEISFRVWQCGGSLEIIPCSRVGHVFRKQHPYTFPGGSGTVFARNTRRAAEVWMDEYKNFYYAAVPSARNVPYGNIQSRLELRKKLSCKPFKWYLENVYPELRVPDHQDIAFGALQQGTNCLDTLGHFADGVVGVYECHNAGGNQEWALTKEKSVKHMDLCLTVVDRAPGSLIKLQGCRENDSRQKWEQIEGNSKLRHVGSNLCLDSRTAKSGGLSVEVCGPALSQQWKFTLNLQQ

Structure (SMILES)	conformational states of GalNAc-T2 observed (GalNAc-T2 [1]; peptide alone or in combination with UDP/Mn+2, peptides 10.0 nM)	optimal glycosylation site (GalNAc-T2 [2]; prior glycosylated site Thr13, ref 1 (supplement))	glycosylation of further sites Ser5 and Thr9 (GalNAc-T2 [2]; ref 1 (supplement))	Rg of crystal complex (GalNAc-T2 [3]; GalNAc-T2-UDP-MUC5AC-13 complex) [Å]	form of GalNAc-T2 bound in crystal (GalNAc-T2 [3]; co-crystallization with UDP and Mn+2, flexible loop conformation)	conformational states of GalNAc-T2 observed (GalNAc-T2 [1]; in the presence of Mn+2, UDP, UDP-GalNAc and MnCl2 20.0 nM)
CC(=O)NCC(=O)N[C@H](C(=O)N[C@H](C(=O)N1CCC[C@H]1C(=O)N[C@@H](CO)C(=O)N1CCC[C@H]1C(=O)N[C@H](C(=O)N1CCC[C@H]1C(=O)N[C@H](C(=O)N[C@H](C(=O)N[C@@H](CO)C(=O)N[C@H](C(=O)N[C@H](C(=O)N[C@@H](CO)C(=O)N[C@@H](C)C(N)=O)[C@@H](C)O[C@H]1O[C@H](CO)[C@H](O)[C@H](O)[C@H]1NC(C)=O)[C@@H](C)O)[C@@H](C)O)[C@@H](C)O)C(C)C)[C@@H](C)O)[C@@H](C)O [MUC5AC-13] (Ac-GTTPSPVPTTSTT(αGalNAc)SA-NH2; N-terminus assumed)	three different conformational states are present	optimally 10 residues N-terminal (Thr3)	not in an efficient manner	26.41	bound to an active form of GalNAc-T2	
O=c1ccn([C@@H]2O[C@H](COP(=O)(O)OP(=O)(O)O)[C@@H](O)[C@H]2O)c(=O)[nH]1 [UDP, uridine diphosphate, reference compound]						either the very compact or the compact structure
